Laboratory results: patent EP3889132B1, “MONOACYLGLYCEROL LIPASE (MAGL) INHIBITORS” (Università di Pisa, priority 2020, dated 2021)

Tests used:
[1] = biological target: T1, recombinant human MAGL enzyme (Homo sapiens, UniProt Q99685); experiment: In vitro screening of activity on the recombinant human MAGL enzyme (4-NPA substrate, absorbance 405 nm); format: biochemical; conditions: substrate 4-NPA, room temperature, 30 minutes
T1 construct: purchased Cayman Chemical 10007812
T1 sequence (Q99685 1-303): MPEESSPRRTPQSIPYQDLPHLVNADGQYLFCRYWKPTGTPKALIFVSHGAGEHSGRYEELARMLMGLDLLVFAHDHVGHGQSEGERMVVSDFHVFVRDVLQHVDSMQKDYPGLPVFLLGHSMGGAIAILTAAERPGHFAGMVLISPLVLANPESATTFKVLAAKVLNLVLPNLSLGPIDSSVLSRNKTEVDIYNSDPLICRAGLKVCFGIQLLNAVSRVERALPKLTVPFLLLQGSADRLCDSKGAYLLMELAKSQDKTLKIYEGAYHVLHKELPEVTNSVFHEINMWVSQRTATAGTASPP
Procedure: The compound 4-nitrophenyl acetate (4-NPA Merck-Sigma Aldrich, 8430750025) was used as a substrate for the recombinant human MAGL enzyme (Cayman Chemical, 10007812). IC50 values were generated in microplates containing 96 wells. The catalytic reaction was carried out at room temperature, at a final volume of 200 µL in 10 mM Tris buffer at pH 7.2 containing 1 mM EDTA and 0.1 mg/ml BSA. A total of 150 µL of 4-NPA 133.3 µM in ethanol was added to 10 µL of DMSO containing the appropriate amount of compound (500 - 0.00256 µM). The reaction began with the addition of 40 µL of the MAGL enzyme (11 ng/well). […] After the reaction continued for 30 minutes, the absorbance values were then measured using a Victor X3 (PerkinElmer®) microplate reader at a wavelength of 405 nm. Two other analyzes were also performed in parallel: one reaction without compounds and the second containing neither compound nor enzyme. […] The IC50 values were calculated from the experimental data (absorbance) through the construction of dose-response curves.

HCT116 = experiment: Cell viability assay (CellTiter-Glo) HCT116; format: cell-based; conditions: Homo sapiens, HCT-116; cell viability after 96 hours; read-out: IC50 (µM, mean ± SD) HCT116
Procedure: (§1) The following tumor cell lines, MDA-MB-231 (Cell Biolabs AKR-231), HCT116 (ATCC® CCL-247), CAOV3 (ATCC® HTB-75), OVCAR3 (ATCC® HTB-161) and SKOV3 (ATCC® HTB-77) were kept at 37 °C in a humidified atmosphere containing 5% CO2 according to the supplier. Cells (5 x 10^2) were plated in 96-well culture plates. The day after plating, the compounds were dissolved in DMSO and added at different concentrations to the medium (final DMSO concentration < 5%). The compounds were added to the cell culture at a concentration between 200 and 0.02 µM. Cell viability was measured after 96 hours with the CellTiter-Glo® Luminescent Cell Viability Assay kit in accordance with the supplier Promega (G7571) with a Tecan M1000 instrument. IC50 values were calculated from dose-response curves. The means were obtained from the triplicates (Table 2). Table 2. Cell viability inhibition activity (IC50, µM) of compound 15.

CAOV3 = experiment: Cell viability assay (CellTiter-Glo) CAOV3; format: cell-based; conditions: Homo sapiens, Caov-3; cell viability after 96 hours; read-out: IC50 (µM, mean ± SD) CAOV3
Procedure: as §1

[2] = biological target: T1, recombinant human MAGL enzyme; experiment: MAGL dilution assay with the recombinant human MAGL enzyme; format: biochemical; conditions: 20 µM vs 40X dilution (final 0.5 µM) vs 0.5 µM (Fig. 3)
Procedure: […] The mixture containing the inhibitor and the enzyme was then diluted 40 times with the buffer solution. After 15 minutes of incubation, the reaction was started in a 160 µL aliquot with the addition of 40 µL of 4-NPA 500 µM in buffer and the enzyme activity was measured according to the procedure described above.
The % of inhibition of the MAGL enzyme was calculated from the measured absorbance. The absorbance measured in the presence of only enzyme with vehicle and without compound was considered as absence of inhibition (positive control), while the absorbance measured in the wells with only vehicle without enzyme and without compound was considered as 100% inhibition (negative control). Intermediate absorbance values with respect to these two extremes indicate enzymatic inhibition and are calculated as the difference between the absorbance value in the well with the compound and the absorbance value of the negative control, all scaled as a percentage considering as the maximum value the negative control and minimum value of minimum inhibition the positive control.
In dilution experiments, if compound 15 were an irreversible inhibitor, its inhibitory potency should not decrease upon dilution.

MDA-MB-231 = experiment: Cell viability assay (CellTiter-Glo) MDA-MB-231; format: cell-based; conditions: Homo sapiens, cell viability after 96 hours, read-out: IC50 (µM, mean ± SD) MDA-MB-231
Procedure: as §1

[3] = biological target: T1, recombinant human MAGL enzyme; experiment: Enzymatic kinetics experiments with scalar concentrations of 4-NPA (Michaelis-Menten, mixed-model inhibition fit); format: biochemical; conditions: compound 1-0.125 µM, 4-NPA 15-1400 µM
Procedure: In enzymatic kinetics experiments, compound 15 was tested in the presence of scalar concentrations of […]. It was added in staggered amounts (concentration range = 1-0.125 µM in DMSO) to a reaction mix containing staggered concentrations of 4-NPA (15-1400 µM in ethanol). Finally, the buffer solution containing the recombinant human MAGL enzyme (11 ng/well) was added. The enzymatic activity was measured at room temperature by recording the increase in absorbance corresponding to the increase in the concentration of […] using a Victor X3 microplate reader (PerkinElmer®). The absorbance was converted into enzymatic rate by making appropriate use of positive and negative controls. The experimental data were analyzed by […] regression analysis applying the inhibition fit of the mixed model (Fig. 1).

OVCAR3 = experiment: Cell viability assay (CellTiter-Glo) OVCAR3; format: cell-based; conditions: Homo sapiens, OVCAR-3; cell viability after 96 hours; read-out: IC50 (µM, mean ± SD) OVCAR3
Procedure: as §1

SKOV3 = experiment: Cell viability assay (CellTiter-Glo) SKOV3; format: cell-based; conditions: Homo sapiens, SK-OV-3; cell viability after 96 hours; read-out: IC50 (µM, mean ± SD) SKOV3
Procedure: as §1

| Compound | IC50 [1] [µM] | further results |
| --- | --- | --- |
| CCCCC(=O)Nc1cc(-c2ccc(O)c(F)c2)ccc1O [Compound 1, N-(3'-Fluoro-4,4'-dihydroxy-[1,1'-biphenyl]-3-yl)pentanamide] | 7.6 ± 0.1 |  |
| CCCCCC(=O)Nc1cc(-c2ccc(O)c(F)c2)ccc1O [Compound 2, N-(3'-Fluoro-4,4'-dihydroxy-[1,1'-biphenyl]-3-yl)hexanamide] | 3.2 ± 0.2 |  |
| CCCCCCCCC(=O)Nc1cc(-c2ccc(O)c(F)c2)ccc1O [Compound 5, N-(3'-Fluoro-4,4'-dihydroxy-[1,1'-biphenyl]-3-yl)nonanamide] | 2.9 ± 0.1 |  |
| CCCCCCCCCCCC(=O)Nc1cc(-c2ccc(O)c(F)c2)ccc1O [Compound 7, N-(3'-Fluoro-4,4'-dihydroxy-[1,1'-biphenyl]-3-yl)dodecanamide] | 2.8 ± 0.3 |  |
| CCCCCCCCCCCCCC(=O)Nc1cc(-c2ccc(O)c(F)c2)ccc1O [Compound 8, N-(3'-Fluoro-4,4'-dihydroxy-[1,1'-biphenyl]-3-yl)tetradecanamide] | 2.5 ± 0.4 |  |
| CCCCCCCCCCCCCCCC(=O)Nc1cc(-c2ccc(O)c(F)c2)ccc1O [Compound 9, N-(3'-Fluoro-4,4'-dihydroxy-[1,1'-biphenyl]-3-yl)palmitamide] | > 20 |  |
| CC(C)C(=O)Nc1cc(-c2ccc(O)c(F)c2)ccc1O [Compound 10, N-(3'-Fluoro-4,4'-dihydroxy-[1,1'-biphenyl]-3-yl)isobutyramide] | 19.7 ± 1 |  |
| CC(C)(C)C(=O)Nc1cc(-c2ccc(O)c(F)c2)ccc1O [Compound 11, N-(3'-Fluoro-4,4'-dihydroxy-[1,1'-biphenyl]-3-yl)pivalamide] | > 20 |  |
| O=C(Nc1cc(-c2ccc(O)c(F)c2)ccc1O)c1ccccc1 [Compound 12, N-(3'-Fluoro-4,4'-dihydroxy-[1,1'-biphenyl]-3-yl)benzamide] | 6.9 ± 0.4 |  |
| O=C(Cc1ccccc1)Nc1cc(-c2ccc(O)c(F)c2)ccc1O [Compound 13, N-(3'-Fluoro-4,4'-dihydroxy-[1,1'-biphenyl]-3-yl)-2-phenylacetamide] | 5.1 ± 0.5 |  |
| O=C(CCc1ccccc1)Nc1cc(-c2ccc(O)c(F)c2)ccc1O [Compound 14, N-(3'-Fluoro-4,4'-dihydroxy-[1,1'-biphenyl]-3-yl)-3-phenylpropanamide] | 2 ± 0.1 |  |

Stronger by IC50 [1], values ahead:

| IC50 [1] [µM] | Compound | further results |
| --- | --- | --- |
| 1.1 ± 0.1 | CCCCCCC(=O)Nc1cc(-c2ccc(O)c(F)c2)ccc1O [Compound 3, N-(3'-Fluoro-4,4'-dihydroxy-[1,1'-biphenyl]-3-yl)eptanamide] |  |
| 0.61 ± 0.03 | CCCCCCCC(=O)Nc1cc(-c2ccc(O)c(F)c2)ccc1O [Compound 4, N-(3'-Fluoro-4,4'-dihydroxy-[1,1'-biphenyl]-3-yl)octanamide] |  |
| 1.1 ± 0.1 | CCCCCCCCCC(=O)Nc1cc(-c2ccc(O)c(F)c2)ccc1O [Compound 6, N-(3'-Fluoro-4,4'-dihydroxy-[1,1'-biphenyl]-3-yl)decanamide] |  |
| 0.34 ± 0.01 | O=C(CCCc1ccccc1)Nc1cc(-c2ccc(O)c(F)c2)ccc1O [Compound 15, N-(3'-Fluoro-4,4'-dihydroxy-[1,1'-biphenyl]-3-yl)-4-phenylbutanamide] | IC50 (HCT116): 14 ± 2 µM; IC50 (CAOV3): 34 ± 4 µM; Inhibition mechanism from percentage of inhibition after 40X dilution [2]: reversible inhibition; IC50 (MDA-MB-231): 75 ± 6 µM; Ki [3]: 0.146 µM; IC50 (OVCAR3): 75 ± 4 µM; IC50 (SKOV3): 16 ± 2 µM |
| 1.1 ± 0.1 | O=C(CCCCc1ccccc1)Nc1cc(-c2ccc(O)c(F)c2)ccc1O [Compound 16, N-(3'-Fluoro-4,4'-dihydroxy-[1,1'-biphenyl]-3-yl)-5-phenylpentanamide] |  |
| 1.9 ± 0.1 | O=C(Cc1cccc2ccccc12)Nc1cc(-c2ccc(O)c(F)c2)ccc1O [Compound 17, N-(3'-Fluoro-4,4'-dihydroxy-[1,1'-biphenyl]-3-yl)-2-(naphtalen-1-yl)acetamide] |  |
